{"source": "patent US5446152A", "about": "“Heterocyclic compounds active in gastro-intestinal pathologies” (priority 1993, dated 1995)", "key": {"gastric dumping": {"system": "gastric dumping", "test": "Test of gastric dumping in the rat", "assay_type": "in vivo", "conditions": "for Increase % of the gastric dumping with respect to the controls: 30' before, measured 20' after the coloured meal, * = p<0.05", "method": "(§1) In tables 5, 6, 7 and 8 the significance was determined by means of Student's test on absolute values with respect to the relative controls using 10 animals per group in tests 5, 6 and 7.\nWithin the gastro-duodenal tract, the prokinetic activity was evaluated by means of the test of gastric dumping in the rat, according to the method reported by Scarpignato C. in J. Pharmacol. 14, 261, 1983."}, "[1]": {"system": "histamine on guinea-pig ileum", "test": "Influence on the activity of histamine on guinea-pig ileum", "conditions": "isolated guinea-pig ileum", "method": "In vitro tests were carried out to evaluate the effect of the compounds of formula I and some of their pharmacologically acceptable salts on physiological peristalsis, on the action of the histamine, serotonine and acetylcholine. The effect on the histamine was evaluated on a preparation of guinea-pig ileum according to the method described by the above-mentioned authors. […] The rabbit jejunum was used to evaluate the extent of the spontaneous peristaltic contractions in the presence and in the absence of the derivatives being studied. On the guinea-pig ileum the cumulative dose-response curve to histamine were recorded in the presence of increasing concentrations of the products being examined."}, "[2]": {"test": "Study of acute toxicity (LD50)", "assay_type": "in vivo", "conditions": "rat, in vivo, iv; Sprague-Dawley rats of both sexes, observation period of 14 days", "method": "(§2) The acute toxicity (LD50)of the derivatives described in this invention was evaluated according to the method reported by Lietchfield J. T. and Wilcoxon F. in J. Pharmacol. Exp. Ther. 96, 99, 1949, on Sprague-Dawley rats of both sexes, over an observation period of 14 days from the day of treatment."}, "rabbit jejunum": {"system": "rabbit jejunum", "test": "Spontaneous peristaltic activity on rabbit jejunum", "conditions": "for Emax / EC50 / EC (maximum effect): Oryctolagus cuniculus; for Emax: read-out: maximum effect % (max. increase of extent of the contractions); for EC50: read-out: CE50 (concentration able to produce 50% of the maximum effect); for EC (maximum effect): read-out: concentration required to obtain the maximum effect", "method": "(§3) In vitro tests were carried out to evaluate the effect of the compounds of formula I and some of their pharmacologically acceptable salts on physiological peristalsis, on the action of the histamine, serotonine and acetylcholine.\nThe action on physiological peristalsis was evaluated on an isolated rabbit jejunum preparation, according to the method reported by Magnus J. in Pfluegers Arch. Gen. Physiol.\nThe rabbit jejunum was used to evaluate the extent of the spontaneous peristaltic contractions in the presence and in the absence of the derivatives being studied."}, "[3]": {"system": "emesis induced with cisplatin", "test": "Test of vomit from cisplatin in the pigeon (antiemetic activity)", "assay_type": "in vivo", "conditions": "one hour before cisplatin 7.5 mg/kg; for Acts of vomit (average/anim.) / Animals that vomit % / Latency of 1st act of vomit: * = p<0.05", "method": "as §1\nFinally the antiemetic activity was evaluated in the pigeon after induction of emesis with cisplatin, according to the method of Preziosi P. et al. in Eur. J. Pharmacol. 221, 343, 1992."}, "[4]": {"system": "serotonine on the fornix of the rat stomach", "test": "Influence on the serotonine activity on the fornix of the rat stomach", "design": "species or system Wistar rat", "method": "as §3\nThe effect on the serotonine was evaluated on the fornix of the stomach of a rat according to the method of Vane J. R. in Br. J. Pharmacol. Cheroother. 12, 344, 1957.\nThe action on the serotonine was evaluated on the fornix of the stomach of rat, also taken from Wistar rat sacrificed after 24 hours fasting, following the technique reported by Vane J. R. in Br. J. Pharmacol. Chemoter. 12, 344, 1957, as previously described."}, "intestinal transit": {"system": "intestinal transit", "test": "Intestinal transit of an opaque meal in the mouse (prokinetic action)", "assay_type": "in vivo, Swiss albino mice", "conditions": "for % of intestine (from pylorus to anus) travelled by the opaque meal / change in vivo at 0.0098 mg/kg: 9.8 μg/Kg p.o.; for % of intestine (from pylorus to anus) travelled by the opaque meal / change in vivo at 0.0098 mg/kg / ED50: 15' before the opaque meal; for change in vivo at 0.0098 mg/kg: Mus musculus, read-out: variation in % with respect to the controls; for change in vivo at 0.0098 mg/kg / ED50: po; for change in vivo at 0.0098 mg/kg / Variation % with respect to the controls: * = p<0.05; for Variation % with respect to the controls / ED50: mouse; for Variation % with respect to the controls: dose five times greater than ED50; for ED50: read-out: DE50 (the source's name)", "method": "as §1\nThe prokinetic action was evaluated in vivo on Swiss albino mice determining the influence of the products on the intestinal transit of an opaque meal, according to the method described by Macht D. I. and Barba-Gose J. in J. Amer. Pharm. Ass. 20, 558, 1931 and later by Witkin L. B. et al. in J. Pharmacol. Exp. Ther. […]\nThe method involved the administration of an opaque meal to the mice after a 24 hour fast, through gastric probe, 15 minutes after the administration of the product.\nAfter sacrificing the animals 20 minutes after the administration of the opaque meal, the percentage of the length of the intestine travelled by the opaque meal was calculated."}, "[5]": {"system": "acetylcholine on the rat ascending colon", "test": "Influence on the acetylcholine activity on the rat ascending colon", "design": "species or system Wistar rat", "conditions": "isolated rat ascending colon", "method": "as §3\nFinally the effect on the acetylcholine was evaluated on the ascending colon of a rat, according to the method of Gaddum J. H. and Horton E. W. reported in Br. J. Pharmacol. Chemother. 14, 117, 1959.\nThe effect of the products on the contracturing action of the acetylcholine was studied on the isolated ascending colon of rat, taken from Wistar rat sacrificed after 24 hours fasting, washed with De Jalon fluid at 27° C. and perfused with the same oxygenated fluid (95% oxygen and 5% carbon dioxide) at the temperature of 27° C. In this case too the cumulative dose-response curves were recorded in the presence of increasing concentrations of the products being studied."}, "behaviour": {"system": "behaviour", "test": "Irwin's test (effects as regards behaviour)", "assay_type": "in vivo", "conditions": "rats, 20 mg/Kg i.p.", "excerpt": "Finally, preliminary studies on the effects as regards behaviour have been performed by means of Irwin's test, according to the method reported by Irwin S. in Gordon Res. Conf. on Medicinal Chem. 1959, 133, 1959, modified in that rats were used instead of mice."}, "Sprague-Dawley rats": {"system": "Sprague-Dawley rats", "test": "Study of acute toxicity (LD50)", "assay_type": "in vivo", "conditions": "Sprague-Dawley rats of both sexes, i.v., observation period of 14 days; 20160 min", "method": "as §2"}, "cholinesterase": {"system": "cholinesterase", "conditions": "cited from earlier work"}, "[6]": {"system": "dopaminergic receptors D2", "conditions": "cited from earlier work"}, "[7]": {"system": "gastro-intestinal motility", "conditions": "cited from earlier work"}, "[8]": {"conditions": "isolated rabbit jejunum, spontaneous peristaltic contractions"}}, "note": "Where a name gives a salt, the structure may show the parent alone. Read-outs that look alike come from different tables or passages of the source.", "data": [{"smiles": "CCN(CC)CCN1CNc2ccc(Cl)cc2C1=O.O=C(O)C(=O)O", "note": "[Example 1, 6-Chloro-3-[2-(diethylamino)ethyl]-2,3-dihydro-4(1H)-quinazolinone oxalate]", "values": [{"measurement": "Increase % of the gastric dumping with respect to the controls", "setting": "gastric dumping; 12.5 μg/kg", "value": 27.6, "unit": "%"}, {"measurement": "Increase % of the gastric dumping with respect to the controls", "setting": "gastric dumping; 50.0 μg/kg", "value": 81.0, "unit": "%"}, {"measurement": "Increase % of the gastric dumping with respect to the controls", "setting": "gastric dumping; 100.0 μg/kg", "value": 40.0, "unit": "%"}, {"measurement": "Increase % of the gastric dumping with respect to the controls", "setting": "gastric dumping; 200.0 μg/kg", "value": 45.7, "unit": "%"}, {"measurement": "Increase % of the gastric dumping with respect to the controls", "setting": "gastric dumping; 400.0 μg/kg", "value": 34.0, "unit": "%"}, {"measurement": "level of activity on the gastric dumping", "setting": "gastric dumping; rat, text statement on table 7", "value": "high level of activity on the gastric dumping"}, {"measurement": "active concentration (histamine)", "setting": "[1]", "value": 100, "unit": "µM"}, {"measurement": "LD50 at 336 h", "setting": "[2]", "value": 100, "unit": "mg/kg"}, {"measurement": "Emax", "setting": "rabbit jejunum; [8]", "value": 75, "unit": "%"}, {"measurement": "EC50", "setting": "rabbit jejunum; isolated rabbit jejunum", "value": 3000, "unit": "nM"}, {"measurement": "EC (maximum effect)", "setting": "rabbit jejunum; isolated rabbit jejunum", "value": 10, "unit": "µM"}, {"measurement": "effect on the spontaneous peristalsis in comparison with cisapride", "setting": "rabbit jejunum; rabbit jejunum, examples 1 and 2 at greater concentrations than the reference, example 6 at identical concentrations", "value": "greater than that of cisapride"}, {"measurement": "Variation % of the time of latency with respect to the controls", "setting": "[3]; 50.0 μg/kg i.m.", "value": -8.3, "unit": "%"}, {"measurement": "Acts of vomit (average/anim.)", "setting": "[3]; 50.0 μg/kg i.m.", "value": 5.0, "unit": "average/anim."}, {"measurement": "Animals that vomit %", "setting": "[3]; 50.0 μg/kg i.m.", "value": 100.0, "unit": "%"}, {"measurement": "Latency of 1st act of vomit", "setting": "[3]; 50.0 μg/kg i.m.", "value": 77.5, "unit": "min"}, {"measurement": "Variation % of the time of latency with respect to the controls", "setting": "[3]; 100.0 μg/kg i.m.", "value": "+14.7%"}, {"measurement": "Acts of vomit (average/anim.)", "setting": "[3]; 100.0 μg/kg i.m.", "value": 4.0, "unit": "average/anim."}, {"measurement": "Animals that vomit %", "setting": "[3]; 100.0 μg/kg i.m.", "value": 100.0, "unit": "%"}, {"measurement": "Latency of 1st act of vomit", "setting": "[3]; 100.0 μg/kg i.m.", "value": 97.0, "unit": "min"}, {"measurement": "active concentration (serotonine)", "setting": "[4]", "value": 10, "unit": "µM"}, {"measurement": "effect on the serotonine activity", "setting": "[4]; oxalate", "value": "increase the effect of the serotonine"}, {"measurement": "% of intestine (from pylorus to anus) travelled by the opaque meal", "setting": "intestinal transit", "value": 52.0, "unit": "%"}, {"measurement": "change in vivo at 0.0098 mg/kg", "setting": "intestinal transit", "value": 34.4, "unit": "%"}, {"measurement": "Variation % with respect to the controls", "setting": "intestinal transit", "value": 33.7, "unit": "%"}, {"measurement": "ED50", "setting": "intestinal transit", "value": 0.0098, "unit": "mg/kg"}, {"measurement": "active concentration (acetylcholine)", "setting": "[5]", "value": 100, "unit": "µM"}]}, {"smiles": "CCN(CC)CCCN1CNc2ccc(Cl)cc2C1=O", "note": "[Example 3, 6-Chloro-3-3-(diethylamino)propyl-2,3-dihydro-4(1H)-quinazolinone oxalate]", "values": [{"measurement": "variations with respect to the controls in behavioural parameters (Irwin's test)", "setting": "behaviour", "value": "no significant variations with respect to the controls"}, {"measurement": "Emax", "setting": "rabbit jejunum; [8]", "value": 25, "unit": "%"}, {"measurement": "EC50", "setting": "rabbit jejunum; isolated rabbit jejunum", "value": 10, "unit": "nM"}, {"measurement": "EC (maximum effect)", "setting": "rabbit jejunum; isolated rabbit jejunum", "value": 1, "unit": "µM"}, {"measurement": "effect on the serotonine activity", "setting": "[4]", "value": "act as competitive antagonists"}, {"measurement": "% of intestine (from pylorus to anus) travelled by the opaque meal", "setting": "intestinal transit", "value": 45.0, "unit": "%"}, {"measurement": "change in vivo at 0.0098 mg/kg", "setting": "intestinal transit", "value": 11.1, "unit": "%"}, {"measurement": "Variation % with respect to the controls", "setting": "intestinal transit", "value": 6.4, "unit": "%"}]}, {"smiles": "CCN(CC)CCN1CN(C)c2ccc(Cl)cc2C1=O", "note": "[Example 11, 6-Chloro-3-[2-(diethylamino)ethyl]-2,3-dihydro-1-methyl-4(1H)-quinazolinonecitrate]", "values": [{"measurement": "LD50", "setting": "Sprague-Dawley rats", "value": 80, "unit": "mg/Kg/i.v."}]}, {"smiles": "COc1cc(N)c(Cl)cc1C(=O)NC1CCN(CCCOc2ccc(F)cc2)CC1OC", "note": "(centres unmarked) [cisapride, reference compound]", "values": [{"measurement": "LD50 at 336 h", "setting": "[2]", "value": 35, "unit": "mg/kg"}, {"measurement": "Emax", "setting": "rabbit jejunum", "value": 40, "unit": "%"}, {"measurement": "EC50", "setting": "rabbit jejunum; isolated rabbit jejunum", "value": 20, "unit": "nM"}, {"measurement": "ED50", "setting": "intestinal transit", "value": 0.019, "unit": "mg/kg"}, {"measurement": "cholinesterase inhibition", "setting": "cholinesterase", "value": "practically no"}]}, {"smiles": "COc1cc(N)c(Cl)cc1C(=O)NC1CCN(Cc2ccccc2)CC1", "note": "[clebopride]", "values": [{"measurement": "activity on the dopaminergic receptors D2", "setting": "[6]", "value": "a fair amount of activity on the dopaminergic receptors D2"}, {"measurement": "gastro-intestinal motility / prokinetic activity", "setting": "[7]", "value": "having prokinetic activity"}]}, {"smiles": "CCN1CC(NC(=O)c2cc(Cl)c(N)cc2OC)CN1CC", "note": "[dazopride]", "values": [{"measurement": "activity on the dopaminergic receptors D2", "setting": "[6]", "value": "a fair amount of activity on the dopaminergic receptors D2"}, {"measurement": "gastro-intestinal motility / prokinetic activity", "setting": "[7]", "value": "having prokinetic activity"}]}, {"smiles": "CCN(CC)CCNC(=O)c1cc(Cl)c(N)cc1OC", "note": "[metoclopramide]", "values": [{"measurement": "activity on the dopaminergic receptors D2", "setting": "[6]", "value": "both central and peripheral antagonistic activity on the dopaminergic receptors D2"}, {"measurement": "gastro-intestinal motility / prokinetic activity", "setting": "[7]", "value": "stimulates the motility of the upper gastro-intestinal tract"}]}]}
